From ChEMBL document CHEMBL2073963, “Transport of methotrexate (MTX) and folates by multidrug resistance protein (MRP) 3 and MRP1: effect of polyglutamylation on MTX transport” (Cancer Res, 2001)

Assays:
Type in all cases: functional, cell membranes
Set-up in all cases: scale not given: the % may be the effect or the level left
[1] = biological target: Multidrug resistance associated protein (Homo sapiens) (UniProt Q96QA9); experiment: TP_TRANSPORTER: inhibition of MTX uptake (MTX: 1 uM, AG-A: 1000 uM) in membrane vesicles from MRP3-expressing HEK293 cells; details: Membrane vesicle
[2] = biological target: Multidrug resistance associated protein (Homo sapiens) (UniProt Q96QA9); experiment: TP_TRANSPORTER: inhibition of MTX uptake (MTX: 1 uM, Vincristine: 300 uM) in membrane vesicle from MRP3-expessing HEK 293 cell; details: HEK293
[3] = biological target: Multidrug resistance associated protein (Homo sapiens) (UniProt Q96QA9); experiment: TP_TRANSPORTER: inhibition of MTX uptake (MTX: 1 uM, MK571: 100 uM) in membrane vesicles from MRP3-expressing HEK293 cells; details: Membrane vesicle
[4] = biological target: Multidrug resistance associated protein (Homo sapiens) (UniProt Q96QA9); experiment: TP_TRANSPORTER: inhibition of MTX uptake (MTX: 1 uM, GC: 300 uM) in membrane vesicles from MRP3-expressing HEK293 cells; details: Membrane vesicle
[5] = biological target: Multidrug resistance associated protein (Homo sapiens) (UniProt Q96QA9); experiment: TP_TRANSPORTER: inhibition of MTX uptake (MTX: 1 uM, DOX;G: 300 uM) in membrane vesicles from MRP3-expressing HEK293 cells; details: Membrane vesicle
[6] = biological target: Multidrug resistance associated protein (Homo sapiens) (UniProt Q96QA9); experiment: TP_TRANSPORTER: inhibition of MTX uptake (MTX: 1 uM, PAK-104P: 100 uM) in membrane vesicles from MRP3-expressing HEK293 cells; details: Membrane vesicle
[7] = biological target: Multidrug resistance associated protein (Homo sapiens) (UniProt Q96QA9); experiment: TP_TRANSPORTER: inhibition of MTX uptake (MTX: 1 uM, VP-16: 300 uM) in membrane vesicles from MRP3-expressing HEK293 cells; details: Membrane vesicle
[8] = biological target: Multidrug resistance associated protein (Homo sapiens) (UniProt Q96QA9); experiment: TP_TRANSPORTER: inhibition of MTX uptake (MTX: 1 uM, PSC-833: 10 uM) in membrane vesicles from MRP3-expressing HEK293 cells; details: Membrane vesicle
[9] = biological target: Multidrug resistance associated protein (Homo sapiens) (UniProt Q96QA9); experiment: TP_TRANSPORTER: inhibition of MTX uptake (MTX: 1 uM, E217betaG: 100 uM) in membrane vesicles from MRP3-expressing HEK293 cells; details: Membrane vesicle

Chain of Multidrug resistance associated protein (Homo sapiens) (Q96QA9 as listed by the source): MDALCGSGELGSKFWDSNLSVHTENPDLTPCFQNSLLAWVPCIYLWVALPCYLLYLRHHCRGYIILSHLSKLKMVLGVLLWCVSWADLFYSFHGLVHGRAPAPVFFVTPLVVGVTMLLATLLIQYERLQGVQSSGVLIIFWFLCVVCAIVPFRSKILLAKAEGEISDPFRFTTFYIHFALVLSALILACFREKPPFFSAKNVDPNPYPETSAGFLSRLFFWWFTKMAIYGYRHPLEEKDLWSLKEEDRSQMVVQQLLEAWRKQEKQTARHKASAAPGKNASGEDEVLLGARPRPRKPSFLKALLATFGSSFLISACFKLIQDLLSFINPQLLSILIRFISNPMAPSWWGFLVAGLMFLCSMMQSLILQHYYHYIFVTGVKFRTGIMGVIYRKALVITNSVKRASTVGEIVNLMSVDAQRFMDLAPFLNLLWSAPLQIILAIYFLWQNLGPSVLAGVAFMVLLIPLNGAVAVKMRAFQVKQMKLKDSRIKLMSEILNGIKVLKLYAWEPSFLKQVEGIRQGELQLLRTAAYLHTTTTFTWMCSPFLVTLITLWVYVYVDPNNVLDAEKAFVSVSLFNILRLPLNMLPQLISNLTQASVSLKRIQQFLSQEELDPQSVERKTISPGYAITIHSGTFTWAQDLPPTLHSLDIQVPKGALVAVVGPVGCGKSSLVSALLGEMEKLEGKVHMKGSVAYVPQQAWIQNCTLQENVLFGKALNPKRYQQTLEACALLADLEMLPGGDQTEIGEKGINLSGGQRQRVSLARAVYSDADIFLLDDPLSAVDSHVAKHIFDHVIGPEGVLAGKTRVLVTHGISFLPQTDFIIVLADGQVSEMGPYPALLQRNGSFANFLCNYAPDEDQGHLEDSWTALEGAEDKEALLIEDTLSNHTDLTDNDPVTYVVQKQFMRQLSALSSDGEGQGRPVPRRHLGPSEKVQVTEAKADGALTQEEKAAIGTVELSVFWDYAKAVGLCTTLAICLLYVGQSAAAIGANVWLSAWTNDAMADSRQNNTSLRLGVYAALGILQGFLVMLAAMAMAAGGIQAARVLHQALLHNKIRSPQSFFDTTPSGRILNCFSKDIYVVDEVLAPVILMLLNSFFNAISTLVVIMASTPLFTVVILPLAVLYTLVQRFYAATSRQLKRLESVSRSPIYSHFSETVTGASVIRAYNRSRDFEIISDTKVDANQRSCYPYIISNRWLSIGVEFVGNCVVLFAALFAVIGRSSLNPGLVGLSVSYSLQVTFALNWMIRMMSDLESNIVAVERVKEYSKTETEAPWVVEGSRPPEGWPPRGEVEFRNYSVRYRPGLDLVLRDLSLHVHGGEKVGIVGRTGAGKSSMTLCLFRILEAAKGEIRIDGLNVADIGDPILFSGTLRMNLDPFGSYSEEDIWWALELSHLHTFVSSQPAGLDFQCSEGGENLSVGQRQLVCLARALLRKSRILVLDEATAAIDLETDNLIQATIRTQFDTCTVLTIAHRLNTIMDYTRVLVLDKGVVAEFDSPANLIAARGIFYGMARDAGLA

Q: Which Activity [1] does the source give for CC(=O)O[C@@H]1[C@@H]2[C@@H](OC(C)=O)C=C3[C@H]([C@H](O)C[C@]4(C)[C@@H]([C@H](C)[C@H](O)CCC(C)C)CC[C@@H]34)[C@@]2(C)CC[C@@H]1OC(C)=O here?
A: 56.9%

Q: For CC[C@]1(O)C[C@H]2CN(CCc3c([nH]c4ccccc34)[C@@](C(=O)OC)(c3cc4c(cc3OC)N(C=O)[C@H]3[C@@](O)(C(=O)OC)[C@H](OC(C)=O)[C@]5(CC)C=CCN6CC[C@]43[C@@H]65)C2)C1, which Activity [2] is on record?
A: 39.1%

Q: For CN(C)C(=O)CCSC(SCCC(=O)O)c1cccc(/C=C/c2ccc3ccc(Cl)cc3n2)c1 (centres undefined), which Activity [3] is on record?
A: 2.3%

Q: C[C@H](CCC(=O)NCC(=O)O)[C@H]1CC[C@H]2[C@@H]3[C@H](O)C[C@@H]4C[C@H](O)CC[C@]4(C)[C@H]3C[C@H](O)[C@]12C was tested. Which Activity [4] did it give?
A: 10.4%

Q: Which Activity [5] does the source give for COc1cccc2c1C(=O)c1c(O)c3c(c(O)c1C2=O)C[C@@](O)(C(=O)CO)C[C@@H]3O[C@H]1C[C@H](N)[C@H](O)[C@H](C)O1 here?
A: 80%

Q: With Cc1nc(C)c(P2(=O)O[C@H](C)C[C@@H](C)O2)c(-c2cccc([N+](=O)[O-])c2)c1C(=O)OCCN1CCN(C(c2ccccc2)c2ccccc2)CC1 (some centres undefined) as the molecule, how does the Activity [6] read?
A: 3%

Q: With COc1cc([C@@H]2c3cc4c(cc3[C@@H](O[C@@H]3O[C@@H]5CO[C@@H](C)O[C@H]5[C@H](O)[C@H]3O)[C@H]3COC(=O)[C@H]23)OCO4)cc(OC)c1O as the molecule, how does the Activity [7] read?
A: 3.47%

Q: For C/C=C/C[C@@H](C)C(=O)[C@H]1C(=O)N[C@@H](C(C)C)C(=O)N(C)CC(=O)N(C)[C@@H](CC(C)C)C(=O)N[C@@H](C(C)C)C(=O)N(C)[C@@H](CC(C)C)C(=O)N[C@@H](C)C(=O)N[C@H](C)C(=O)N(C)[C@@H](CC(C)C)C(=O)N(C)[C@@H](CC(C)C)C(=O)N(C)[C@@H](C(C)C)C(=O)N1C, which Activity [8] is on record?
A: 61.4%

Q: How did the Activity [9] turn out when C[C@]12CC[C@@H]3c4ccc(O)cc4CC[C@H]3[C@@H]1CC[C@@H]2O[C@@H]1O[C@H](C(=O)O)[C@@H](O)[C@H](O)[C@H]1O was run?
A: 8.27%
